We go through one sequence from patent US20050196806A1, “Prostate specific antigen oligoepitope peptide” (The Government of the USA, as represented by the Secretary, …, priority 1996, published 2005).

Test [1] concerns the target T1, HLA class-I A2001 molecule (Homo sapiens, UniProt P04439, D140Y/D185E/D98H/E176V/E277Q/G131W/G231S/I119V/I121R/I166T/I218V/L300P/L318F/N151K/N90K/P208A/P217A/Q86G/Q94H/R138H/R169H/T345S).
T1 construct: endogenous in cells; host or cells: T2 cells (174CEM.T2, transport deletion mutant)
Kind of test: Peptide binding to HLA-A2: upregulation on T2 cells by flow cytometry (Example IV). Conditions: T2 cells incubated 24 h with peptide 50 μg/ml/10^6 cells; 100 cut off value for positivity; None = 16.88. In general terms: In flow cytometry, cells or beads pass a laser one at a time.
Method: 1×10^6 cells in serum-free IMDM were incubated with peptides at the concentration of 50 μg/ml in 24-well culture plates at 37° C. in 5% CO2. Flow cytometry for peptide binding was performed using T2 cells and single color analysis. After cells were washed three times in DPBS as above, they were incubated for 1 hr with HLA-A2 specific MAb A2,69 (One lambda, Inc., Canoga Park, Calif.), using 10 μl of a 1× working dilution per 10^6 cells. MOPC-21 (Cappel/Organon Teknika Corp.) was used as isotype control. The cells were then washed three times and incubated with 1:100 dilution of fluorescein (FITC) labeled anti-mouse IgG (Kirkegaard & Perry, Gaithersburg, Md.). Analysis was carried out using the FACScan as described above. Cells were maintained on ice during all cell preparation and staining unless otherwise stated.

In another test the test system is NK target K562. In words: Cytotoxic assay of PSA peptide specific T cells against K562. It counts as cell-based, human. Conditions: T-Donor A T-cell line; 24 hour assay, E:T ratio 25:1. An excerpt: Four of the T cell lines derived from three different individuals were then assays for their ability to lyse human cells (Table 9). […] No lysis was seen using the PSA negative human colon cancer cell line COLO-205. While 80% lysis was seen using the LNCAP PSA expressing human prostate cancer cell line. When employing the NK target K562, which measures non-specific lysis due to NK cell activity, only 23% lysis was obtained. Similar results were seen employing a different T cell line obtained from the same patient which was derived from pulsing with PSA peptide 154-163. Two additional T cell lines which were derived from peptide 154-163 were also analyzed. One was from a normal donor (T-1538) and one was from a prostate cancer patient (T-PC2; T Donor C).

A further test addresses T2, human HLA A2 molecules (Homo sapiens, UniProt P04439, D140Y/D185E/D98H/E176V/E277Q/G131W/G231S/I119V/I121R/I166T/I218V/L300P/L318F/N151K/N90K/P208A/P217A/Q86G/Q94H/R138H/R169H/T345S).
T2 construct: endogenous in cells; host or cells: T2 cells (174CEM.T2)
Kind of test: T2 cell binding assay (PSA peptide binding assay, Example II). Particulars: peptides at 50 μg/ml, None = 127.25. An excerpt: The amino acid sequence of human PSA was scanned using a predictive algorithm that combines a search for anchor residues with numerical assignments to all residues at all positions. The T2 cell binding assay was then used to determine which peptides bound human HLA A2 molecules. […] Table 7 gives the amino acid sequence of these peptides and compares them to corresponding sequences of HGK and PKA.

The test system of another test is T2 cells. Kind of test: Cytotoxic assay of PSA peptide specific T cells against T2 cells. It counts as cell-based, human. Conditions: 24 hour assay, E:T ratio 25:1.
Test [2] deals with PBLs isolated from male HLA-A2001+ donors. Kind of test: Limiting dilution analysis of CTL precursor frequency. It counts as cell-based, human. Conditions: for Number of precursors (precursor frequency): calculated by X^2 minimization; for % of negative microcolonies, 10,000: two cycles of stimulation with the peptide, targets CIRA2 pulsed 3 h, cold K562. The method, then:
Limiting dilution assays were used for the determination of precursor frequencies to PSA-1, PSA-3 and PSA-OP. Various number of PBMCs were seeded in 96-well flat bottom plates (Coming Costar) with 1×10^4 autologous PBMC irradiated with 4,000 rads and incubated with 50 μg/ml of PSA peptide. Cells were cultured in complete medium as described previously. At least 48 cultures were set up for each dilution. Cultures were incubated for 5 days at 37° C. in a humidified atmosphere containing 5% CO2 and then provided with fresh medium containing human IL-2 for 11 days, with IL-2-containing medium being replenished every 72 hr as shown below for CTLs generation. After two cycles of stimulation specific cytotoxic activity was tested for each single well, against CIR-A2 target cells with or without incubation with peptide. Cytotoxic assays were similar to the method described above. The unlabelled K562 cells were added to the microwells containing responder cells. After 1 hr incubation at 37° C. target cells were added into each well and incubated for 6 hrs at 37° C. Precursor frequencies were calculated by X^2 minimization.

Marks after values point to notes of the source that are not given here.

As for FLTPKKLQCV [PSA-1, ID No. 1], the “T2 binding: relative fluorescence (mean intensity) with anti-HLA-A2 mAb” value in test [1] was 127.73. The “% specific release (lysis), K562” value in the test on NK target K562 is 23%. For the same sequence, the “MAb A2, 69: Mean channel fluorescent intensity” value in the test with human HLA A2 molecules (listed as 141-150) is “positive”. Also, in the test with human HLA A2 molecules (listed as PSA 141-150), the “MAb A2, 69: Mean channel fluorescent intensity” value is 230.34. In addition, the “% specific release (lysis), T2” value in the test on T2 cells (T-Donor A T-cell line derived with the peptide, 111In release) is given as 10^a %. Moreover, the “% specific release (lysis), T2 + peptide” value in the test on T2 cells (T-Donor A T-cell line) was 40^b %. Moreover, in test [2] (T/PSA-OP 2 donor), the “% of negative microcolonies, 500” value is given as 95.8%; the “% of negative microcolonies, 1,000” value is listed as 93.7%; the “% of negative microcolonies, 5,000” value stood at 75.0%; the “Number of precursors (precursor frequency)” value is recorded as 1/14695. Also, in test [2] (T/PSA-OP 2 donor), the “% of negative microcolonies, 10,000” value turned out to be 47.9%. In addition, in test [2] (T/PSA-OP 3 donor), the “% of negative microcolonies, 500” value was 100.0%; the “% of negative microcolonies, 1,000” value was determined as 100.0%; the “% of negative microcolonies, 5,000” value stood at 97.9%; the “Number of precursors (precursor frequency)” value is listed as 1/181480. Moreover, the “% of negative microcolonies, 10,000” value in test [2] (T/PSA-OP 3 donor) came to 93.7%.
